By solubility (kinetic) is commonly meant the concentration staying in solution when a stock, usually in DMSO, is diluted into the medium.

Values after ≈ are worked out from the molar mass of the structure shown. Where only a bound is given, the exact number is not on record here.

The conditions of this data set: buffer; pH 7.4; 200.0 µM.
As for `CN1CCN(C(=O)/C(=C/c2ccccc2F)NC(=O)c2ccccc2)CC1`, the solubility (kinetic) is more than 55.1 µg/mL. Turning to `CCCCCC(=O)Nc1ncc2c(n1)CC(c1cccs1)CC2=O` (stereo not drawn), the solubility (kinetic) was 4.4 µg/mL (≈ 12.8 µM). The compound `CC/C(=N\N1CCCCC1)c1c(O)[nH]c(=O)[nH]c1=O` came in with a solubility (kinetic) of more than 39.9 µg/mL. `CC(C)CN1CCN(Cc2cccc3cccnc23)CC1CCO` (stereo not drawn) returned a kinetic solubility of 37.1 µg/mL (≈ 113 µM). In the case of `O=c1[nH]cccc1-c1nc2ccccc2n1Cc1ccc(F)cc1` it was 47.7 µg/mL (≈ 149 µM). `CCCOC(=O)CC1C(=O)NCCN1Cc1cc(OC)cc(OC)c1` (stereo not drawn): the kinetic solubility is more than 52.6 µg/mL. Take `CC1=CC=CC2=NC(=O)CC(C)(C(=O)O)N12` (stereo not drawn): the kinetic solubility was more than 33 µg/mL. Consider `COc1ccc(C(=O)Nc2nc(-c3ccccn3)cs2)cc1S(=O)(=O)N1CCOCC1`, for which the kinetic solubility came to 6.8 µg/mL (≈ 14.8 µM). Consider `CCn1c(SCC(=O)OC)nnc1-c1ccc(C)cc1`, for which the solubility (kinetic) is more than 43.7 µg/mL. The compound `Cc1csc(=Nc2ccccc2)n1CCCN1CCCC1=O` displayed a solubility (kinetic) of more than 47.3 µg/mL.

`CC1CCCN(C(=O)c2ccc(-c3ccccc3Cl)o2)C1` (stereo not drawn) returned a kinetic solubility of 10 µg/mL (≈ 32.9 µM). The compound `O=C(Cc1ccc(Cl)cc1)N1CCc2ccccc2C1` displayed a kinetic solubility of 37.2 µg/mL (≈ 130 µM). `CC(C)N1CC(COc2ccccc2Cl)OC1=O` (stereo not drawn): the solubility (kinetic) is more than 40.5 µg/mL.

For the compound `CC1CN(C(C)C)C(C)CC1OC(=O)c1ccccc1` (stereo not drawn), the solubility (kinetic) was more than 41.3 µg/mL.

`CC1CC(O)C(C)CN1` (stereo not drawn) yielded a solubility (kinetic) of more than 19.4 µg/mL. Under `Cc1ccc(N2C(=O)c3ccccc3C(C)(C)C2=O)cc1` stands 12.8 µg/mL (≈ 45.8 µM); under `COCCCC/C(=N\OCCN)c1ccc(C(F)(F)F)cc1.O=C(O)/C=C\C(=O)O`, more than 65.2 µg/mL; under `O=C(NCCCN1CCOCC1)c1ccc(Cl)c([N+](=O)[O-])c1`, 45.2 µg/mL (≈ 138 µM). Under `Cn1c(=O)[nH]c2ncccc21` stands more than 22.4 µg/mL. In turn, `O=C1CN(C(=O)c2ccccc2C(=O)O)c2ccccc2N1` showed a solubility (kinetic) of more than 44.4 µg/mL. As for `NCCCS(=O)(=O)O.O.[Na+]`, the kinetic solubility was determined as 2.9 µg/mL. The compound `Cc1nc2ccccn2c1-c1ccnc(SCc2ccc(Cl)cc2)n1` yielded a solubility (kinetic) of less than 0.2 µg/mL.

`CC1CC1C(=O)Nc1nc2ccc(Cl)cc2s1` (stereo not drawn): the kinetic solubility was 0.6 µg/mL (≈ 2.25 µM).

`Cc1cnc(N2C(=O)c3ccc([N+](=O)[O-])cc3C2=O)s1` gave a kinetic solubility of 28 µg/mL (≈ 96.8 µM). As for `Cc1nc(SCc2ccccc2)c2oc3ccccc3c2n1`, the kinetic solubility was less than 0.3 µg/mL. In the case of `O=C(c1cccc2ccccc12)N1CCCCC1` it was 34.9 µg/mL (≈ 146 µM); in that of `COP(=O)(OC)/C(C=O)=N/Nc1ccc([N+](=O)[O-])cc1`, more than 45.2 µg/mL.

For the compound `CN(C)S(=O)(=O)c1cc(NC(=O)COC(=O)CC2Sc3ccccc3NC2=O)ccc1Cl` (stereo not drawn), the kinetic solubility was found to be 12.2 µg/mL (≈ 24.5 µM). `Cc1c(NC(=O)COC(=O)c2cccn2C)c(=O)n(-c2ccccc2)n1C` showed a solubility (kinetic) of more than 55.3 µg/mL. `COc1ccc(C2c3sc(=O)[nH]c3SCC2C(N)=O)cc1` (stereo not drawn) yielded a solubility (kinetic) of 40 µg/mL (≈ 124 µM). As for `CC(NC(=O)Nc1ccc(F)cc1)c1ccc2c(c1)OCO2` (stereo not drawn), the kinetic solubility was determined as 3.4 µg/mL (≈ 11.2 µM). `Cc1ccc(S(=O)(=O)N2CCC(N3CCC(C)CC3)CC2)cc1` yielded a solubility (kinetic) of more than 50.5 µg/mL. For `CCc1ccccc1NC(=O)NCCN1CCCCC1`, the kinetic solubility was more than 41.3 µg/mL. For the compound `S=C(NCc1ccc(Cl)cc1)Nc1ccncc1`, the kinetic solubility was more than 41.7 µg/mL.

For `COC(=O)c1sccc1NC(=O)c1c(F)c(F)c(F)c(F)c1F`, the kinetic solubility is less than 0.8 µg/mL. Consider `O=C(CSc1ncccn1)Nc1cccc(S(=O)(=O)N2CCOCC2)c1`, for which the solubility (kinetic) was more than 59.2 µg/mL. Take `COc1ccc(NC(=O)CSCc2ccc([N+](=O)[O-])cc2)cc1OC`: the solubility (kinetic) is 50.1 µg/mL (≈ 138 µM). Compound `NC(=O)C1CCN(CC(=O)Nc2cccnc2Cl)CC1` returned a solubility (kinetic) of 44.1 µg/mL (≈ 149 µM).

In turn, `O=C(C1CCN(S(=O)(=O)c2c(Cl)cccc2Cl)CC1)N1CCCC1` yielded a kinetic solubility of more than 58.7 µg/mL. Take `CCCCNc1nc2c(c(=O)n(Cc3ccccc3)c(=O)n2C)n1C`: the kinetic solubility stood at 4.1 µg/mL (≈ 12 µM).

For the compound `OC1CCN(Cc2ccc(OCc3ccccc3)cc2)CC1`, the solubility (kinetic) was more than 44.6 µg/mL. As to `Cc1cnc(NC(=O)c2sc(Nc3ccccc3)nc2N)o1`, the solubility (kinetic) is 6.4 µg/mL (≈ 20.3 µM). As for `COc1ccc(CCNS(=O)(=O)c2cn(C)nc2C)cc1`, the solubility (kinetic) is more than 46.4 µg/mL.

With `Cc1cc(Nc2ccccc2)cc(=O)n1C`, the solubility (kinetic) came to 30.9 µg/mL (≈ 144 µM). `COc1ccc(C(=O)O)cc1S(=O)(=O)N(C)CCc1ccccn1`: the solubility (kinetic) was more than 52.6 µg/mL. `COc1cc([N+](=O)[O-])ccc1NC(=O)Cc1ccccc1` displayed a solubility (kinetic) of 5.5 µg/mL (≈ 19.2 µM). Regarding `CN1C(=O)/C(=C/c2cn(CC(=O)N3CCCCC3)c3ccccc23)NC1=S`, the solubility (kinetic) was 2.7 µg/mL (≈ 7.06 µM).

Consider `O=C(COC(=O)c1ccc(Br)o1)NCc1ccc2c(c1)OCO2`, for which the solubility (kinetic) is 29.9 µg/mL (≈ 78.2 µM). In the case of `COc1ccc(S(=O)(=O)Nc2ncccc2C)c2ccccc12` it was 37.6 µg/mL (≈ 114 µM); in that of `CC(C)c1ccc(C(CC(=O)O)N2Cc3ccccc3C2=O)cc1` (stereo not drawn), more than 48.5 µg/mL. In turn, `Cc1cccc(-c2noc(CNC(=O)COc3ccccc3C)n2)c1` registered a solubility (kinetic) of 1.2 µg/mL (≈ 3.56 µM). For the compound `Cn1c(N)c(C(=O)CSc2nc(N)cc(N)n2)c(=O)n(C)c1=O`, the kinetic solubility turned out to be 3 µg/mL (≈ 8.89 µM). With `O=C(CN1C(=O)NC2(CCCCCCC2)C1=O)Nc1cccc(Br)c1`, the kinetic solubility stood at 8.2 µg/mL (≈ 20.1 µM).

The compound `Cc1ccc(S(=O)(=O)NC2CCCCCC2)cc1C(N)=O` displayed a kinetic solubility of more than 46.6 µg/mL. As for `Cc1cccc(OCCn2ccnc2)c1`, the solubility (kinetic) amounted to 20.9 µg/mL (≈ 103 µM).

For `COc1ccc(C(=O)NCC(=O)N2CCCCC2)cc1OC`, the solubility (kinetic) was more than 46 µg/mL. In the case of `Cc1cc(NC(=O)CSc2nc3c(cc2C#N)CCC3)no1` it was 1.4 µg/mL (≈ 4.45 µM). In turn, `COc1ccc(CCC(C)NCc2ccc(Cl)c(Cl)c2)cc1` (stereo not drawn) showed a solubility (kinetic) of 17.3 µg/mL (≈ 51.1 µM). For `Cc1ccc(C(=O)NCCN2CCOCC2)c(Cl)c1`, the solubility (kinetic) was more than 42.4 µg/mL. Consider `Cn1c(=O)c2c(nc(NNC(=O)C(F)(F)F)n2C)n(C)c1=O`, for which the kinetic solubility is more than 48 µg/mL. In the case of `COc1ccccc1C(=O)N/C(=N/c1nc(C)cc(C)n1)Nc1ccccc1` it was 1.1 µg/mL (≈ 2.93 µM). Under `CCOC(=O)N1CCN(C(=O)c2cc3ccc(OC)cc3[nH]2)CC1` stands 19.5 µg/mL (≈ 58.8 µM). Turning to `COc1ccc(CC(=O)Nc2cc(Cl)ccc2C(=O)O)cc1`, the solubility (kinetic) is more than 48 µg/mL. With `O=C(/C=C/c1ccccc1Cl)N1CCOCC1`, the kinetic solubility worked out at 36.6 µg/mL (≈ 145 µM). On to `N/C(=N\OC(=O)Cc1ccc(Cl)cc1)c1ccncc1`, for which the solubility (kinetic) worked out at 27.1 µg/mL (≈ 93.5 µM). For `COc1ccc(NC(=O)C(Cc2ccccc2)n2cccc2)cc1` (stereo not drawn), the solubility (kinetic) stood at 26.5 µg/mL (≈ 82.7 µM).

As to `Cc1cc(C)c(C#N)c(SCC(=O)Nc2cc(C)on2)n1`, the kinetic solubility was 2.1 µg/mL (≈ 6.95 µM).

Compound `O=C(NC(=S)Nc1ccc(CN2CCOCC2)cc1)c1ccco1` came in with a kinetic solubility of more than 51.8 µg/mL.

Compound `O=S(=O)(Cc1ccc(Cl)cc1)NCc1cccnc1` yielded a kinetic solubility of more than 44.5 µg/mL. Regarding `Cn1c(COc2ccccc2Br)nc2ccccc21`, the kinetic solubility stood at 1.4 µg/mL (≈ 4.41 µM). In turn, `Nc1nc(NC2CCCCC2)nc(NCCO)c1[N+](=O)[O-]` showed a kinetic solubility of 38.1 µg/mL (≈ 129 µM). For the compound `Cc1cccc(OP(N)(=O)Oc2cccc(C)c2C)c1C`, the kinetic solubility turned out to be 3.9 µg/mL (≈ 12.8 µM). As to `Cc1cccc(N2C(=O)c3ccc(Br)cc3C2=O)n1`, the kinetic solubility is more than 47.6 µg/mL. Consider `Cc1cc(NC(=O)CN2C(=O)NC(CC(C)C)C2=O)no1` (stereo not drawn), for which the kinetic solubility was more than 44.1 µg/mL. Under `COc1ccc(CN2C(=O)CNC2=S)cc1` stands more than 35.4 µg/mL; under `O=C(COC(=O)c1nsc(Cl)c1Cl)NC1CCCC1`, more than 48.5 µg/mL; under `CCOc1ccc(NC(=S)NC23CC4CC(CC(C4)C2)C3)cc1`, less than 0.4 µg/mL. In the case of `COc1ccc(C(=O)COC(=O)CNC(=O)c2ccc(OC)cc2)cc1`, the solubility (kinetic) worked out at 17.3 µg/mL (≈ 48.4 µM). In the case of `O=C(NC1CCCCC1)c1cc(C2CC2)on1` it was more than 35.1 µg/mL; in that of `O=C(Nc1ccc(N2CCOCC2)c(S(=O)(=O)Nc2ccccc2Cl)c1)c1ccc(F)cc1`, 1 µg/mL (≈ 2.04 µM). Under `Cc1noc(C)c1C(=O)Nc1nc(-c2ccc(F)cc2)cs1` stands 10.3 µg/mL (≈ 32.5 µM); under `CN(C(=O)c1ccc(F)cc1)c1ccc(OCC(=O)Nc2ccccc2C(=O)O)cc1`, more than 63.4 µg/mL. `CCc1ccc(NC(=S)N(Cc2ccccc2)Cc2ccccn2)cc1` showed a solubility (kinetic) of 2.4 µg/mL (≈ 6.64 µM). Turning to `O=C(O)c1c(-n2cccc2)sc2c1CCCC2`, the solubility (kinetic) is more than 37.1 µg/mL. `Cn1c(=O)c(C(=O)NCC2CCCO2)c(O)c2ccccc21` (stereo not drawn) displayed a solubility (kinetic) of 15.2 µg/mL (≈ 50.3 µM).

`O=C(NCc1cccnc1)C(=O)Nc1ccc2c(c1)OCO2`: the solubility (kinetic) was 42.7 µg/mL (≈ 143 µM).

The compound `O=c1c(Cc2c(F)cccc2Cl)c(O)ccn1C1CC1` displayed a solubility (kinetic) of more than 44.1 µg/mL.

In turn, `COc1ccccc1N1CCN(c2nccc(C)n2)CC1` yielded a kinetic solubility of 40.3 µg/mL (≈ 142 µM). Compound `CCN(CC)C(=O)c1ccc(NC(=O)COc2ccccc2F)cc1` showed a solubility (kinetic) of more than 51.7 µg/mL. Consider `Cc1ccc(C(=O)NCC(=O)N2CCCCCC2)cc1`, for which the kinetic solubility is more than 41.2 µg/mL. Under `O=[N+]([O-])c1ccc(NCc2ccc3c(c2)OCO3)cc1` stands less than 0.3 µg/mL; under `O=C(c1cccc(F)c1)N1CCC(c2nc3ccccc3s2)CC1`, more than 51.1 µg/mL. In turn, `COc1cc(OC)c(C(=O)OC(C)C(=O)NCc2ccc3c(c2)OCO3)cc1OC` (stereo not drawn) registered a kinetic solubility of more than 62.6 µg/mL. The compound `O=C(O)C1C2c3ccccc3C(c3ccccc32)C1C(=O)Nc1ccccc1` (stereo not drawn) yielded a kinetic solubility of more than 55.4 µg/mL. On to `Cn1cnc2c(=O)sc3ccccc3c21`, for which the solubility (kinetic) was more than 32.4 µg/mL.

With `COc1ccc(CNc2ncnc3c2[nH]c2cc(OC)c(OC)cc23)cc1`, the kinetic solubility is 1.2 µg/mL (≈ 3.29 µM). On to `O=C(c1ccccc1)c1ccc(C(=O)N2CCN(c3ccc(O)cc3)CC2)cc1`, for which the kinetic solubility came to 47.4 µg/mL (≈ 123 µM).

`Cl.O=C(NCc1ccccc1)N1CCNCC1`: the kinetic solubility is more than 38.4 µg/mL. As to `CCNc1nc(SC(C)C(=O)OC)nc(N(C)C)n1` (stereo not drawn), the solubility (kinetic) amounted to 30 µg/mL (≈ 105 µM).

In the case of `Cc1ccc(CNC(=O)CCCN2C(=S)NC(C)(C)CC2C)cc1` (stereo not drawn), the solubility (kinetic) was found to be 37 µg/mL (≈ 106 µM). In the case of `CC(C)n1c(CN2CCN(Cc3ccccc3)CC2)nc2ccccc21` it was 34.8 µg/mL (≈ 99.9 µM).

Take `CC(=O)Nc1ccc(C(=O)CN2C(=O)NC3(CCCc4ccccc43)C2=O)c(F)c1` (stereo not drawn): the solubility (kinetic) is 53 µg/mL (≈ 129 µM). `CCOC(=O)C(O)(c1ccc(N=c2ccccn2C)cc1)C(F)(F)F` (stereo not drawn) had a solubility (kinetic) of 46.3 µg/mL (≈ 131 µM).
